# Laboratory results from ChEMBL document CHEMBL1155991, “Discovery of isoxazole voltage gated sodium channel blockers for treatment of chronic pain” (Bioorg Med Chem Lett, 2009).
# Molecular target: T1, Sodium channel protein type 9 subunit alpha (Homo sapiens, UniProt Q15858)
# Experiment: Inhibition of human Nav1.7 channel expressed in HEK293 cells by FRET assay
# Assay type: cell-based
# Settings: not given
# Target sequence in this assay (Q15858 whole entry): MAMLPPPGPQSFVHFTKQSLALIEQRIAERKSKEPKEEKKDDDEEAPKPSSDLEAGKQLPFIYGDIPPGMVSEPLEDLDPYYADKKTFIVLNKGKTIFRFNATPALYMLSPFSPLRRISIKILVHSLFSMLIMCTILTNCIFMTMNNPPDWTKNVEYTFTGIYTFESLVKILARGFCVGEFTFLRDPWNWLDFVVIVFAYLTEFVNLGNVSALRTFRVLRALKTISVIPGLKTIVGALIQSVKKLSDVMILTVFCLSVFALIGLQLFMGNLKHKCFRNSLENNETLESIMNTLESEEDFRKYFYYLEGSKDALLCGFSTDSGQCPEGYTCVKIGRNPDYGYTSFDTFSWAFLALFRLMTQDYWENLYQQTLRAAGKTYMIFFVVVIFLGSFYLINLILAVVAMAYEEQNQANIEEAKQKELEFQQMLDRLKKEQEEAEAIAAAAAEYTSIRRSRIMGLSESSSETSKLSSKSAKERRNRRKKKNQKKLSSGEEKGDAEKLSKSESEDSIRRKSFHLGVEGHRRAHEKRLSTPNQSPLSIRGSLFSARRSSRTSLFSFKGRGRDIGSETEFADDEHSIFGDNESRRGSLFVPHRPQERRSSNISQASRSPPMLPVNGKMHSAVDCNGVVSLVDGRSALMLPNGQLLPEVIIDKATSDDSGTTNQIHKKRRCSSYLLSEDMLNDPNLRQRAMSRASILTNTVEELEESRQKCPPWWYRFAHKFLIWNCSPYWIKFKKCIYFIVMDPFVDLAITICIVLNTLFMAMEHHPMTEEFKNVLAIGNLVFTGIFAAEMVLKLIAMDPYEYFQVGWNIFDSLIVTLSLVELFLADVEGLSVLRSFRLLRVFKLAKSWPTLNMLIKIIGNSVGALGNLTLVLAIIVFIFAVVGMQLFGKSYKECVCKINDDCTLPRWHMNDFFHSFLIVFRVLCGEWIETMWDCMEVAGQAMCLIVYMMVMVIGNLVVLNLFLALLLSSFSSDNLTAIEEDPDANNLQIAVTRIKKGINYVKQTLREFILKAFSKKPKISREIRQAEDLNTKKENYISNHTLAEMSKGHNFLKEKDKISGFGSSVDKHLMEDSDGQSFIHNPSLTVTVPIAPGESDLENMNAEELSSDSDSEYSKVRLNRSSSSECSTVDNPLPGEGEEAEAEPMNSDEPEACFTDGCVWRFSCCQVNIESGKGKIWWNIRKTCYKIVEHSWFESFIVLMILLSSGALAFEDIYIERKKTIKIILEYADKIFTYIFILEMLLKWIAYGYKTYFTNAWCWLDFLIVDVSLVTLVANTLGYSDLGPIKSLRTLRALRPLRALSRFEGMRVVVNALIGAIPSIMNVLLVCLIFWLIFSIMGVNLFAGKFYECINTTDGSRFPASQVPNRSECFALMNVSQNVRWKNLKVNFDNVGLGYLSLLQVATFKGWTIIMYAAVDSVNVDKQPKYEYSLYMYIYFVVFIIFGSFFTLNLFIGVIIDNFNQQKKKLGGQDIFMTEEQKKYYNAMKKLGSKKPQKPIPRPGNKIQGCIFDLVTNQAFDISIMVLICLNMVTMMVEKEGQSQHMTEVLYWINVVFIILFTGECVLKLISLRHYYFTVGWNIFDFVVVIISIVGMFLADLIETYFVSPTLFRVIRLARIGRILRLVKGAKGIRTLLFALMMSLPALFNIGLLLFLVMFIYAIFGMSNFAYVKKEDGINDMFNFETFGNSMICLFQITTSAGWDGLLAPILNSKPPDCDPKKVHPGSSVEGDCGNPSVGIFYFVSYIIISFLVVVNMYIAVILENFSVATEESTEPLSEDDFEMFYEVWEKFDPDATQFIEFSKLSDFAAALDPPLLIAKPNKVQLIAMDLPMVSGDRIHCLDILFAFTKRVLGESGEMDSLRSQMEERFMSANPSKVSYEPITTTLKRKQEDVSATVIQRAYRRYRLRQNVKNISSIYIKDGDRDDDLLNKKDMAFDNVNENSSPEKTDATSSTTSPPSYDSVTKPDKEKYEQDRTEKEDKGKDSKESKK
row,Structure (SMILES),IC50 [nM]
1,O=C(NC1(c2ccccc2)CCC1)[C@@H]1CCC[C@H]1c1cc(-c2ccccc2Cl)on1,180
2,O=C(NC1(c2ccccc2)CCC1)[C@@H]1CCC[C@H]1c1cc(-c2ccccc2C(F)(F)F)on1,740
3,O=C(NC1(c2ccccc2)CCCC1)[C@@H]1CCC[C@H]1c1cc(-c2ccccc2)on1,220
4,O=C(NC1(c2ccccc2)CCC1)[C@@H]1CCC[C@H]1c1cc(-c2cccc(C(F)(F)F)c2O)on1 (stereo in doubt; 30b),> 10000
5,O=C(NC1(c2cccc(F)c2)CCC1)[C@@H]1CCC[C@H]1c1cc(-c2ccccc2)on1,110
6,COC1CC(NC(=O)[C@@H]2CCC[C@H]2c2cc(-c3ccccc3)on2)(c2ccccc2)C1 (some centres undefined),380
7,COc1ccccc1-c1cc([C@@H]2CCC[C@H]2C(=O)NC2(c3ccccc3)CCC2)no1,390
8,O=C(NC1(c2ccccc2)CC(O)C1)[C@@H]1CCC[C@H]1c1cc(-c2ccccc2)on1 (some centres undefined),> 5000
9,COc1ccc(-c2cc([C@@H]3CCC[C@H]3C(=O)NC3(c4ccccc4)CCC3)no2)cc1,180
10,O=C(NC1(c2ccc(F)cc2)CCC1)[C@@H]1CCC[C@H]1c1cc(-c2ccccc2)on1,84
11,CC(C)(NC(=O)[C@@H]1CCC[C@H]1c1cc(-c2ccccc2)on1)c1ccccc1,430
12,CC(NC(=O)[C@@H]1CCC[C@H]1c1cc(-c2ccccc2)on1)c1ccccc1 (some centres undefined),1700
13,O=C(NC1(c2ccccc2)CCC1)[C@@H]1CCC[C@H]1c1cc(-c2ccc(C(F)(F)F)cc2O)on1,300
14,O=C(NC1(c2ccccc2)CC1)[C@@H]1CCC[C@H]1c1cc(-c2ccccc2)on1,440
15,O=C(NC1(c2ccccc2)CC(F)C1)[C@@H]1CCC[C@H]1c1cc(-c2ccccc2)on1 (stereo in doubt; 17),180
16,O=C(NC1(c2ccccc2)CC(F)C1)[C@@H]1CCC[C@H]1c1cc(-c2ccccc2)on1 (stereo in doubt; 18),160
17,O=C(NC1(c2ccccc2)CCC1)[C@@H]1CCC[C@H]1c1cc(-c2cccc(OC(F)(F)F)c2)on1,370
18,O=C(NC1(c2ccccc2)CCC1)[C@@H]1CCC[C@H]1c1cc(-c2cccc(C(F)(F)F)n2)on1,220
19,O=C(NC1(c2ccccc2)CCC1)[C@@H]1CCC[C@H]1c1cc(-c2cccc(OC(F)(F)F)c2O)on1,260
20,O=C(NC1(c2ccccc2)CCC1)[C@@H]1CCC[C@H]1c1cc(-c2ccccc2)on1,120
21,O=C(NC1(c2ccccc2)CCC1)[C@@H]1CCC[C@H]1c1cc(-c2cccc(O)c2)on1,210
22,O=C(NC1(c2cccc(C(F)(F)F)c2)CCC1)[C@@H]1CCC[C@H]1c1cc(-c2ccccc2)on1,590
23,COc1cccc(-c2cc([C@@H]3CCC[C@H]3C(=O)NC3(c4ccccc4)CCC3)no2)c1,20
24,O=C(NC1(c2ccccc2F)CCC1)[C@@H]1CCC[C@H]1c1cc(-c2ccccc2)on1,450
25,O=C(NC1(c2ccccc2)CCC1)[C@@H]1CCC[C@H]1c1cc(-c2ccc(O)cc2)on1,130
26,O=C(NC1(c2ccccc2)CCC1)[C@@H]1CCC[C@H]1c1cc(-c2cccc(C(F)(F)F)c2O)on1 (stereo in doubt; 30a),430
27,COc1cccc(-c2cc([C@@H]3CCC[C@H]3C(=O)NC3(c4ccccc4)CCC3)no2)n1,190
28,O=C(NC1(c2ccccc2)CCCCC1)[C@@H]1CCC[C@H]1c1cc(-c2ccccc2)on1,580
29,O=C(NC1(c2ccccc2)CCC1)[C@@H]1CCC[C@H]1c1cc(-c2cccc(C(F)(F)F)c2O)on1 (stereo in doubt; 30),340

# Molecular target: T1, Sodium channel protein type 9 subunit alpha
# Experiment: Inhibition of human Nav1.7 channel expressed in HEK293 cells at 1 uM by FRET assay
# Assay type: cell-based
# Settings: not given
# Target sequence in this assay (Q15858 whole entry, looked up): as the sequence (Q15858 whole entry) above
row,Structure (SMILES),inhibition [%]
1,O=C(NC1(c2ccccc2)CCC1)[C@@H]1CCC[C@H]1c1cc(-c2cc(C(F)(F)F)ccc2O)on1,1
2,O=C(NC1(c2ccccc2)CCC1)[C@@H]1CCC[C@H]1c1cc(-c2c(O)cccc2C(F)(F)F)on1,1
3,O=C(NC1(c2ccccc2)CCC1)[C@@H]1CCC[C@H]1c1cc(-c2ccccc2O)on1,44
4,O=C(NC1(c2ccccc2)CCC1)[C@@H]1CCC[C@H]1c1cc(-c2cccc(=O)[nH]2)on1,0
5,CC1(c2ccccc2)CC([C@@H]2CCC[C@H]2C(=O)NC2(c3ccccc3)CCC2)=NO1 (some centres undefined),8
6,O=C(NC1(c2ccccc2)CCC1)[C@@H]1CCC[C@H]1c1cc(-c2ccc(O)c(C(F)(F)F)c2)on1,0
7,O=C(NCc1ccccc1)[C@@H]1CCC[C@H]1c1cc(-c2ccccc2)on1,37
8,O=C(NC1(c2ccccc2)CC(F)(F)C1)[C@@H]1CCC[C@H]1c1cc(-c2ccccc2)on1,41

# Molecular target: Voltage-gated inwardly rectifying potassium channel KCNH2 (Homo sapiens, UniProt Q12809)
# Experiment: (§1) Displacement of [35S]MK-0499 from human ERG expressed in HEK293 cells at 10 uM […]
# Assay type: cell-based
# Settings: hek293, 10 µM, 10 µM
# Voltage-gated inwardly rectifying potassium channel KCNH2, sequence (Q12809 whole entry): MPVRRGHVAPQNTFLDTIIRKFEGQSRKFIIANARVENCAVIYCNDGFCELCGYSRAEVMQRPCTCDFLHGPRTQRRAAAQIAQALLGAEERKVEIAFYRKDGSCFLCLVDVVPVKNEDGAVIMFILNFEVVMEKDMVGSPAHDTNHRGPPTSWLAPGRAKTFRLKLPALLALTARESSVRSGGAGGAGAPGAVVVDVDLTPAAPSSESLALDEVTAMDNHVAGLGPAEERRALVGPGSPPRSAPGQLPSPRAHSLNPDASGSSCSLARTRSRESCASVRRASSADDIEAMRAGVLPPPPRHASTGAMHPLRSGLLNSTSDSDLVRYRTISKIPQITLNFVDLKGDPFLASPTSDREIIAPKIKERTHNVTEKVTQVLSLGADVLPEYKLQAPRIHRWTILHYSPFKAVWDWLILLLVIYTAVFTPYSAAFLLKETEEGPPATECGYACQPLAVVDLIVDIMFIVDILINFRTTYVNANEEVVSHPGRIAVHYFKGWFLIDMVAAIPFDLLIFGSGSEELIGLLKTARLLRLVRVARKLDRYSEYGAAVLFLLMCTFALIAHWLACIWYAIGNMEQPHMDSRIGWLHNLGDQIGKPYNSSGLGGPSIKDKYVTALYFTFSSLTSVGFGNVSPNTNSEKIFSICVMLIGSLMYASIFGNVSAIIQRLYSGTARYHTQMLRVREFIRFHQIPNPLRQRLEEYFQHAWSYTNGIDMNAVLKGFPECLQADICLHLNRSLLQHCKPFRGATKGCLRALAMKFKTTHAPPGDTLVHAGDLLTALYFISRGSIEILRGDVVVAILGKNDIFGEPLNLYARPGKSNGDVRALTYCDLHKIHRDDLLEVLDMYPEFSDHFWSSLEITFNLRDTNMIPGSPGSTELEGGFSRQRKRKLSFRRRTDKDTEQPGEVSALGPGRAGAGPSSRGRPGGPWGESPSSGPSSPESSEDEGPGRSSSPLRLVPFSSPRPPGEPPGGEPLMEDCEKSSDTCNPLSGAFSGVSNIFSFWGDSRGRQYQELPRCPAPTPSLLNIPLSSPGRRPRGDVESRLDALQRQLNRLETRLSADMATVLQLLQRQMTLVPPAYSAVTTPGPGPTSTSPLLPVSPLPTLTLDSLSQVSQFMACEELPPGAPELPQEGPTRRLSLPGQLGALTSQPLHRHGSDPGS
row,Structure (SMILES),inhibition (INH) [%]
1,O=C(NC1(c2ccccc2)CC(F)C1)[C@@H]1CCC[C@H]1c1cc(-c2ccccc2)on1 (stereo in doubt; 18),59

# Molecular target: hERG (KCNH2) (Homo sapiens, UniProt Q12809)
# Experiment: as §1
# Assay type: cell-based
# Settings: HEK293 cells expressing human ERG, probe [35S]MK-0499
# hERG (KCNH2), sequence (Q12809 whole entry): as above
row,Structure (SMILES),inhibition at 10 µM [%]
1,O=C(NC1(c2ccccc2)CCC1)[C@@H]1CCC[C@H]1c1cc(-c2ccccc2Cl)on1,76
2,O=C(NC1(c2ccccc2)CCC1)[C@@H]1CCC[C@H]1c1cc(-c2ccccc2C(F)(F)F)on1,91
3,O=C(NC1(c2ccccc2)CCCC1)[C@@H]1CCC[C@H]1c1cc(-c2ccccc2)on1,85
4,O=C(NC1(c2cccc(F)c2)CCC1)[C@@H]1CCC[C@H]1c1cc(-c2ccccc2)on1,64
5,COC1CC(NC(=O)[C@@H]2CCC[C@H]2c2cc(-c3ccccc3)on2)(c2ccccc2)C1 (some centres undefined),51
6,COc1ccccc1-c1cc([C@@H]2CCC[C@H]2C(=O)NC2(c3ccccc3)CCC2)no1,54
7,O=C(NC1(c2ccccc2)CCC1)[C@@H]1CCC[C@H]1c1cc(-c2ccccc2O)on1,54
8,COc1ccc(-c2cc([C@@H]3CCC[C@H]3C(=O)NC3(c4ccccc4)CCC3)no2)cc1,44
9,O=C(NC1(c2ccc(F)cc2)CCC1)[C@@H]1CCC[C@H]1c1cc(-c2ccccc2)on1,81
10,CC(C)(NC(=O)[C@@H]1CCC[C@H]1c1cc(-c2ccccc2)on1)c1ccccc1,45
11,CC(NC(=O)[C@@H]1CCC[C@H]1c1cc(-c2ccccc2)on1)c1ccccc1 (some centres undefined),47
12,O=C(NC1(c2ccccc2)CCC1)[C@@H]1CCC[C@H]1c1cc(-c2ccc(C(F)(F)F)cc2O)on1,72
13,O=C(NC1(c2ccccc2)CC1)[C@@H]1CCC[C@H]1c1cc(-c2ccccc2)on1,47
14,O=C(NC1(c2ccccc2)CC(F)C1)[C@@H]1CCC[C@H]1c1cc(-c2ccccc2)on1 (stereo in doubt; 17),46
15,O=C(NC1(c2ccccc2)CCC1)[C@@H]1CCC[C@H]1c1cc(-c2cccc(OC(F)(F)F)c2)on1,55
16,O=C(NC1(c2ccccc2)CCC1)[C@@H]1CCC[C@H]1c1cc(-c2cccc(C(F)(F)F)n2)on1,22
17,O=C(NC1(c2ccccc2)CCC1)[C@@H]1CCC[C@H]1c1cc(-c2cccc(OC(F)(F)F)c2O)on1,47
18,O=C(NC1(c2ccccc2)CCC1)[C@@H]1CCC[C@H]1c1cc(-c2ccccc2)on1,37
19,O=C(NCc1ccccc1)[C@@H]1CCC[C@H]1c1cc(-c2ccccc2)on1,35
20,O=C(NC1(c2ccccc2)CCC1)[C@@H]1CCC[C@H]1c1cc(-c2cccc(O)c2)on1,64
21,O=C(NC1(c2cccc(C(F)(F)F)c2)CCC1)[C@@H]1CCC[C@H]1c1cc(-c2ccccc2)on1,89
22,COc1cccc(-c2cc([C@@H]3CCC[C@H]3C(=O)NC3(c4ccccc4)CCC3)no2)c1,62
23,O=C(NC1(c2ccccc2F)CCC1)[C@@H]1CCC[C@H]1c1cc(-c2ccccc2)on1,40
24,O=C(NC1(c2ccccc2)CC(F)(F)C1)[C@@H]1CCC[C@H]1c1cc(-c2ccccc2)on1,27
25,O=C(NC1(c2ccccc2)CCC1)[C@@H]1CCC[C@H]1c1cc(-c2ccc(O)cc2)on1,15
26,COc1cccc(-c2cc([C@@H]3CCC[C@H]3C(=O)NC3(c4ccccc4)CCC3)no2)n1,54
27,O=C(NC1(c2ccccc2)CCC1)[C@@H]1CCC[C@H]1c1cc(-c2cccc(C(F)(F)F)c2O)on1 (stereo in doubt; 30),45

# System: not listed separately
# Experiment: Oral bioavailability in Sprague-Dawley rat at 3 mg/kg
# Assay type: ADME, organism-based
# Settings: in vivo
row,Structure (SMILES),bioavailability [%]
1,O=C(NC1(c2ccccc2)CCC1)[C@@H]1CCC[C@H]1c1cc(-c2cccc(OC(F)(F)F)c2)on1,46
2,O=C(NC1(c2ccccc2)CCC1)[C@@H]1CCC[C@H]1c1cc(-c2cccc(C(F)(F)F)n2)on1,36

# System: not listed separately
# Experiment: Plasma clearance in Sprague-Dawley rat at 1 mg/kg, iv or 3 mg/kg, po
# Assay type: ADME, organism-based
# Settings: not given
row,Structure (SMILES),clearance [mL/min/kg]
1,O=C(NC1(c2ccccc2)CCC1)[C@@H]1CCC[C@H]1c1cc(-c2cccc(OC(F)(F)F)c2)on1,89
2,O=C(NC1(c2ccccc2)CCC1)[C@@H]1CCC[C@H]1c1cc(-c2cccc(C(F)(F)F)n2)on1,135

# System: not listed separately
# Experiment: Half life in Sprague-Dawley rat at 1 mg/kg, iv or 3 mg/kg, po
# Assay type: ADME, organism-based
# Settings: in vivo
row,Structure (SMILES),half-life [h]
1,O=C(NC1(c2ccccc2)CCC1)[C@@H]1CCC[C@H]1c1cc(-c2cccc(OC(F)(F)F)c2)on1,2.6
2,O=C(NC1(c2ccccc2)CCC1)[C@@H]1CCC[C@H]1c1cc(-c2cccc(C(F)(F)F)n2)on1,1.51

# System: Rattus norvegicus
# Experiment: Analgesic activity in SNL rat neuropathic pain model assessed as reversal of allodynia at 10 mg/kg, po after 2 hrs
# Assay type: functional
# Settings: not given
row,Structure (SMILES),Activity [%]
1,CN(Cc1ccc(-c2ccccc2S(N)(=O)=O)cc1)C(=O)[C@@H]1CCC[C@H]1C(=O)NCc1ccc(OC(F)(F)F)cc1,30

# System: Rattus norvegicus
# Experiment: Analgesic activity in SNL rat neuropathic pain model assessed as reversal of allodynia at 10 mg/kg, po after 4 hrs
# Assay type: functional
# Settings: not given
row,Structure (SMILES),Activity [%]
1,CN(Cc1ccc(-c2ccccc2S(N)(=O)=O)cc1)C(=O)[C@@H]1CCC[C@H]1C(=O)NCc1ccc(OC(F)(F)F)cc1,28

# System: Rattus norvegicus
# Experiment: Analgesic activity in SNL rat neuropathic pain model assessed as reversal of allodynia at 10 mg/kg, po after 3 hrs
# Assay type: functional
# Settings: not given
row,Structure (SMILES),Activity [%]
1,CN(Cc1ccc(-c2ccccc2S(N)(=O)=O)cc1)C(=O)[C@@H]1CCC[C@H]1C(=O)NCc1ccc(OC(F)(F)F)cc1,35
